Laboratory results reported in publication PMC12442081, “Combating Fuel Biocontamination: Tailored Antimicrobial Peptides and an Innovative Delivery Strategy” (ACS Applied Bio Materials, 2025).
Where no end group is shown, it is not given here.

What was measured:
[1] = tested on: Hormoconis resinae (HR) ATCC 20267; type: cell-based
Method: (§1) All of the bacterial species were grown overnight at 37 °C in LB broth. 10^7 CFU/mL of cells were resuspended in fresh culture and grown until the mid log phase. , The bacterial cells were adjusted to a concentration of 5 × 10^5 CFU/mL to quantify the MIC. Equal volumes of the respective bacterial cultures were incubated with the serially diluted peptides in 96-well microtiter plate and incubated overnight at 37 °C in ambient air. Microorganisms without peptides were treated as the positive control, while uninoculated broth was used as the negative control. The MIC was taken as the lowest peptide concentration at which observable bacteria growth was inhibited, as measured by a microplate reader (Biotek Synergy H1 microplate reader). Experiments were performed in triplicates, and the mean MIC values were determined. A similar study was performed to understand the effect of peptide purity, i.e., ranging from 70 to 95%, on the peptide MIC.
The same experimental procedures that were conducted for the antibacterial assay were used to determine the MIC of the peptides against the fungal strain, H. resinae.

Hormoconis resinae (HR) = assay: Effectiveness of peptides on spiked fuel samples (aqueous layer); type: cell-based; set-up: key: (+) =1 (implying peptide activity in fuel environment); (X) = 0 (implying no activity in the desired range, indicated by microbial proliferation); Fuel x = -1(implying no activity in fuel environment); details: initial screening in spiked fuel
Method: (§2) To study the partitioning of microbes in fuel tanks, filter-sterilized fuel was mixed with BH medium in a 1:1 (v/v) ratio. The inoculum was added to the aqueous phase at the bottom to simulate growth in the aqueous layer of fuel tanks and incubated aerobically at 30 °C for 30 days. Visible growth was assessed, and aliquots from both the aqueous and fuel phases were plated on nutrient agar plates to evaluate microbial growth. Peptides were initially added to the aqueous layer of microbially spiked fuel samples for screening the effectiveness in the fuel environment. The study was further extended over a longer duration, and incubated under aerobic conditions at 30 °C for 30 days. Microbial growth was monitored at regular intervals by plating aliquots from the aqueous layer on the nutrient agar plates.
(§3) The engineered peptides were administered at their respective MICs to the aqueous layer of simulated fuel samples, and samples from both the aqueous and solvent (fuel) layers were removed at intervals of 7, 14, 21, and 30 days and plated on LBA plates to assess cell viability (Table S5).

[2] = tested on: Pseudomonas aeruginosa (PA); assay: as above; type: cell-based; set-up: key: (+) =1 (implying peptide activity in fuel environment); (X) = 0 (implying no activity in the desired range, indicated by microbial proliferation); Fuel x = -1(implying no activity in fuel environment); details: initial screening in spiked fuel
Method: as §2, §3

[3] = tested on: Micrococcus yunnanensis (MY); assay: as above; type: cell-based; set-up: key: (+) =1 (implying peptide activity in fuel environment); (X) = 0 (implying no activity in the desired range, indicated by microbial proliferation); Fuel x = -1(implying no activity in fuel environment); details: initial screening in spiked fuel
Method: as §2, §3

[4] = tested on: Dermacoccus nishinomiyaensis (DN); assay: as above; type: cell-based; set-up: key: (+) =1 (implying peptide activity in fuel environment); (X) = 0 (implying no activity in the desired range, indicated by microbial proliferation); Fuel x = -1(implying no activity in fuel environment); details: initial screening in spiked fuel
Method: as §2, §3

Kocuria rosea (KR) = assay: as above; type: cell-based; set-up: key: (+) =1 (implying peptide activity in fuel environment); (X) = 0 (implying no activity in the desired range, indicated by microbial proliferation); Fuel x = -1(implying no activity in fuel environment); details: initial screening in spiked fuel
Method: as §2, §3

[5] = tested on: Sphingomonas paucimobilis (SP); assay: as above; type: cell-based; set-up: key: (+) =1 (implying peptide activity in fuel environment); (X) = 0 (implying no activity in the desired range, indicated by microbial proliferation); Fuel x = -1(implying no activity in fuel environment); details: initial screening in spiked fuel
Method: as §2, §3

[6] = tested on: Bacillus licheniformis (BL); assay: as above; type: cell-based; set-up: key: (+) =1 (implying peptide activity in fuel environment); (X) = 0 (implying no activity in the desired range, indicated by microbial proliferation); Fuel x = -1(implying no activity in fuel environment); details: initial screening in spiked fuel
Method: as §2, §3

Roseomonas mucosa (RM) = assay: as above; type: cell-based; set-up: key: (+) =1 (implying peptide activity in fuel environment); (X) = 0 (implying no activity in the desired range, indicated by microbial proliferation); Fuel x = -1(implying no activity in fuel environment); details: initial screening in spiked fuel
Method: as §2, §3

[7] = tested on: Macrococcus caseolyticus (MC); assay: as above; type: cell-based; set-up: key: (+) =1 (implying peptide activity in fuel environment); (X) = 0 (implying no activity in the desired range, indicated by microbial proliferation); Fuel x = -1(implying no activity in fuel environment); details: initial screening in spiked fuel
Method: as §2, §3

[8] = tested on: Pseudomonas aeruginosa (PA) ATCC 39327; type: cell-based; details: ATCC 39327
Method: as §1

[9] = tested on: Macrococcus caseolyticus (MC) ATCC 13548; type: cell-based
Method: as §1

[10] = tested on: Micrococcus yunnanensis (MY) ATCC 12698; type: cell-based
Method: as §1

[11] = tested on: Kocuria rosea (KR) ATCC 186; type: cell-based
Method: as §1

[12] = tested on: Bacillus licheniformis (BL) ATCC 14580; type: cell-based; details: ATCC 14580
Method: as §1

[13] = tested on: Sphingomonas paucimobilis (SP); type: cell-based
Method: as §1

[14] = tested on: microbial clusters MY, KR, DN, MC, BL, RM, SP, PA, HR; assay: Broad-spectrum activity score (in-house scoring matrix); details: sum over 9 microbial clusters: (+) = 1, (X) = 0, Fuel x = -1
Method: Table S4. Summarizing the broad-spectrum activity of the peptides, considering the MIC value/ efficacy to control microbial growth upon fuel co-incubation
Peptides Bacterial clusters Fungal
Actinobacteria Firmicutes Proteobacteria Asco- […]
Peptides identified based on the scoring matrix, where (+) =1 (implying peptide activity in fuel environment); (X) = 0 (implying no activity in the desired range, indicated by microbial proliferation); Fuel x = -1(implying no activity in fuel environment).
Clearly, P17 is the best performing peptide in vitro across diverse microbial phyla as well as when incubated in the fuel environment. Based on the activity of the selected peptides, the best

[15] = HPLC retention time as a function of peptide hydrophobicity; type: physicochemical; details: chromatographic, Polaris 5 C18-A reverse phase, 0.1% TFA water / 0.1% TFA acetonitrile gradient, 30 min, 300 μM peptide
Method: The purity of the peptides was ascertained by high-performance liquid chromatography (HPLC) using Polaris 5 C18-A […] × 4.6 mm reverse phase Zorbax columns from Agilent Technologies. The buffer system contained 0.1% (v/v) TFA in 100% water and 0.1% (v/v) TFA in 100% acetonitrile. Each peptide sample contained 300 μM peptides dissolved in an acetonitrile–water (1:4) mixture. A constant gradient of the two solvent systems was used to generate the chromatogram for 30 min after sample injection.

[16] = tested on: Roseomonas mucosa (RM) ATCC BAA-692; type: cell-based
Method: as §1

[17] = tested on: Dermacoccus nishinomiyaensis (DN) ATCC 29093; type: cell-based
Method: as §1

Compound | MIC [1] [µM] | activity considering MIC value/efficacy upon fuel co-incubation (Hormoconis resinae (HR)) | activity considering MIC value/efficacy upon fuel co-incubation [2] | activity considering MIC value/efficacy upon fuel co-incubation [3] | activity considering MIC value/efficacy upon fuel co-incubation [4] | activity considering MIC value/efficacy upon fuel co-incubation (Kocuria rosea (KR)) | activity considering MIC value/efficacy upon fuel co-incubation [5] | activity considering MIC value/efficacy upon fuel co-incubation [6] | activity considering MIC value/efficacy upon fuel co-incubation (Roseomonas mucosa (RM)) | activity considering MIC value/efficacy upon fuel co-incubation [7] | MIC [8] [µM] | MIC [9] [µM] | MIC [10] [µM] | MIC [11] [µM] | MIC [12] [µM] | MIC [13] [µM] | Score [14] | R t, retention time of peptide on HPLC column as a function of peptide hydrophobicity [15] [min] | MIC [16] [µM] | MIC [17] [µM]
CC[C@H](C)[C@H](N)C(=O)N[C@H](C(=O)N1CCC[C@H]1C(=O)N[C@@H](Cc1c[nH]c2ccccc12)C(=O)N[C@@H](CCCCN)C(=O)N[C@@H](Cc1c[nH]c2ccccc12)C(=O)N1CCC[C@H]1C(=O)N[C@@H](Cc1c[nH]c2ccccc12)C(=O)N[C@@H](Cc1c[nH]c2ccccc12)C(=O)N1CCC[C@H]1C(=O)N[C@@H](Cc1c[nH]c2ccccc12)C(=O)N[C@@H](CCCNC(=N)N)C(=O)N[C@@H](CCCNC(=N)N)C(=O)O)[C@@H](C)CC [P13] | 7.8 | Fuel x | X | + | X | Fuel x | + | + | X | + | 7.8 | 3.9 | 0.9 | 3.9 | 3.9 | 0.9 | 2 | 12.084 |  | 
ILPWKWPFWPWRR [P7] | 1.95 | Fuel x | X | + | X | X | + | + | + | X | 31.25 |  | 0.9 |  | 0.9 | 0.9 | 3 | 12.156 | 0.9 | 
ILPWKWPWWPWRK [P2] |  | X | X | X | Fuel x | + | + | + | Fuel x | + |  | 1.9 |  | 0.9 | 0.9 | 0.9 | 2 | 12.624 | 0.9 | 0.9
ILPWKWPWWVWRR [P5] | 62.5 | X | X | + | + | Fuel x | + | + | X | X | 31.25 |  | 0.9 | 0.9 | 0.9 | 0.9 | 3 | 12.045 |  | 0.9
